Assay results: patent US20120270848A1, “Novel Compositions and Therapeutic Methods Using Same” (Galleon Pharmaceuticals, Inc., priority 2010, published 2012)
In brackets after ≈: the same amount, converted by molar mass. Several values for one entry are separate records, joined by “and”; a condition that tells them apart may be missing. Equal values may be shown once. Entries after “also recorded” stand apart in the source; their conditions may differ.

How the values were obtained:
[1] = system: opioid-induced respiratory depression in the rat; assay: Opioid-induced changes in arterial blood gas parameters, arterial blood gas analysis; assay type: in vivo; conditions: for Arterial Blood Gases - OIRD, pCO2 (mmHg) and saO2 (%): reversal of opioid-induced respiratory depression: 3 mg/kg/min IV infusion after 10 mg/kg IV morphine, compared to vehicle; for PaCO2: % reversal / PaO2: % reversal / pH % reversal / saO2: % reversal: 3.0 mpk/min IV infusion after morphine 10 mg/kg, vs composite vehicle group, 15 min into 20 min infusion
Protocol: Rats with pre-cannulated jugular vein and femoral arterial catheters (for administrating drugs and obtaining blood samples respectively) were obtained from Harlan laboratories and kept at the animal facility at Galleon Pharmaceuticals until the experimental procedures. All animals experiments were carried out according to the US law on animals care and use approved by Galleon Pharmaceuticals IACUC. Each animal was dosed with morphine sulfate (10 mg/kg), dissolved in saline at a concentration of 10 mg/ml, via injection into the jugular vein over a period of 20 seconds with a 20 second flush of 0.9% NaCl saline. Prior to morphine administration, two 250 μL samples of arterial blood were aspirated from the femoral artery into a pre-heparinized syringe. The samples were analyzed on Radiometer's ABL Flex 800, where pO2, pCO2, pH, saO2 and other parameters were recorded. Aspirated volumes of arterial blood were replaced by room temperature sterile saline (˜300 μL) slowly flushed back into the femoral arterial catheter of the rodent to prevent anemia and/or dehydration. Morphine was then administered and 2 minutes later another blood sample was taken. After a period of 5 min from the administration of morphine, (−)-doxapram, (+)-doxapram or racemic doxapram (15 mg/mL) was administered via infusion into the jugular vein at a rate of 60 μL/min/300 gram rat. The infusion started at t=15 minutes and ended at t=35 minutes. Arterial blood gas analysis occurred at time points t=17, 25, 30, 37, 45, and 50 minutes. […] The small improvements in blood gas parameters seen towards the end of the experiment in the (−)-doxapram group were associated with behavioral toxicities and therefore cannot be distinguished from non-specific side effects. Results are illustrated in Table 4 and FIGS. 3-4.

[2] = system: hypoxic ventilatory response in the rat; assay: Hypoxic ventilatory response to 12% O2, plethysmography; assay type: in vivo; conditions: IV infusion (Table 5: 1, 3 mg/kg/min; text: 3 mg/kg/min), compared to vehicle
Protocol: Rats with a pre-cannulated jugular vein (for administrating drugs) were acclimated to plethysmography chambers for a minimum of 60 minutes, or until animals were no longer restless. Each animal was dosed with (−)-doxapram, (+)-doxapram, or racemic doxapram via infusion into the jugular vein catheter over a period of 15 minutes, at 3 mg/kg/min at 0.020 ml/min based on a 300 gram rat. After a period of 15 minutes, an isocapnic, hypoxic mixture (12% O2 balanced N2) was administered into all chambers using a gas mixer (CWE inc. GSM-3 gas mixer) for 15 minutes. After 15 minutes, the gas mixer was turned off, resulting in normal room air pumped into the chambers. Ten minutes later, the infusion pumps were turned off, and all animals were given a 15 minute recovery period, followed by a post-study analysis of rat health and behavior. […] The small increases in minute ventilation seen towards the end of the experiment in the (−)-doxapram group (i.e. T20-T55) were associated with behavioral toxicities and therefore cannot be distinguished from non-specific side effects. Results are illustrated in FIG. 5 and Table 5.

[3] = system: spontaneously breathing rats; assay: In vivo spirometry: cumulative dose-dependent ventilatory response (maximum peak minute ventilation); parameters: species or system rat
Protocol: (§1) All surgical procedures were performed under anesthesia induced by 2% isoflurane in compressed medical grade air. With rats in supine position, the right femoral vein was catheterized using polyethylene tubing (PE-50). This catheter was used for fluid and drug administration. Simultaneously, the right femoral artery was also catheterized for monitoring blood pressure. In order to measure the respiratory parameters in spontaneously breathing rats, trachea was intubated using 13 gauge tracheal tube (2.5 mm ID, Instech Solomon, Pa.).
After establishing a stable base-line at 1.5% isoflurane, cumulative dose-dependent (1, 3, 10 and 30 mg/kg) ventilatory responses to (−)-doxapram, (+)-doxapram, or racemic doxapram were generated from spontaneously breathing rats. Maximum peak minute ventilatory (MV) values at each dose from corresponding drug were calculated and used for generating ED50 values. Results are illustrated in Table 3 and FIG. 1. All the specific ventilatory stimulant activity of racemic doxapram was associated with the (+)-enantiomer.

[4] = Solubility in EtOH/MeOH for the chromatographic separation; assay type: physicochemical; conditions: organic solvent or mixture
Protocol: With stirring and sonication, 2.51 g of racemic doxapram were dissolved in approximately 200 mL EtOH/MeOH (50/50 v/v). The solution was injected onto the chromatographic column using the conditions illustrated above. The injection volume was 4 mL, performed every 7 minutes. The appropriate fractions collected from the chromatographic process were concentrated using rotary evaporators at 40° C. and 50 mbar. After solvent removal, the products were dried in a vacuum oven at 40° C. to obtain (−)-doxapram (1.19 g, 95% yield, ?99% e.e.) and (+)-doxapram (1.34 g, 107% yield, ≧99% e.e.). The experimental recovery of (+)-doxapram may have been high due to residual DMEA in the system.
A sample of 19.94 g of racemic doxapram was dissolved in approximately 1.0 L of EtOH/MeOH 80/20 (v/v) with stirring and sonication. The injection volume was 4 mL, and injection was performed every 5.83 min. The appropriate fractions collected from the chromatographic process were concentrated using rotary evaporators at 40° C. and 50 mbar. After solvent removal, the products were dried in a vacuum oven at 40° C. to obtain (−)-doxapram (8.47 g, 85% yield, ≧99% e.e.) and (+)-doxapram (12.50 g, 125% yield, ≧99% e.e.). The experimental recovery of (+)-doxapram may have been high due to residual DMEA in the system.

[5] = Comparative IV pharmacokinetics of a 20 min infusion; assay type: in vivo; conditions: 20 min infusion of 3 mg/kg/min IV
Protocol: FIG. 9 is a set of graphs illustrating the IV pharmacokinetics of a 20-minute infusion (from 15 minutes to 35 minutes) of 3 mg/kg/min IV (+)-doxapram and (−)-doxapram. The upper panel pharmacokinetic data was plotted on a linear y-axis, the lower panel represents the same data plotted on a log y-axis.
The difference in efficacy and adverse events seen between the enantiomers is therefore due to genuine differences in the intrinsic pharmacodynamics (i.e. pharmacology and side effects profiles) of the enantiomers, as opposed to differential exposures/pharmacokinetics. Results are illustrated in FIG. 9.

[6] = system: opioid-induced respiratory depression in the rat; assay: Opioid-induced respiratory depression, plethysmography (minute ventilation); assay type: in vivo; conditions: 1, 3 mg/kg/min IV infusion after 10 mg/kg IV morphine; compared to vehicle
Protocol: All animal experiments were carried out according to the US law on animals care and use approved by Galleon Pharmaceuticals Institutional Animal Care and Use Committee (IACUC). Rats with pre-cannulated jugular vein (for administrating drugs) were acclimated to plethysmography chambers for a minimum of 60 minutes, or until animals were no longer restless. Each animal was dosed with morphine sulfate (10 mg/kg), dissolved in sterile water at a concentration of 10 mg/mL (supplied by Baxter Healthcare Corporation), via injection into the jugular vein catheter over a period of 5-10 seconds. After a period of 5 min, (−)-doxapram, (+)-doxapram, or racemic doxapram ([…]) was administered via infusion into the jugular vein at a rate of 0.020 mL/min for a 300 gram rat. Behavioral observations were made though the course of the experiment. After 20 min of infusion at 1 mg/kg/min, the infusion rates were tripled from 0.020 mL/min to 0.060 mL/min for all rats, based on body weight. After 20 minutes of infusion at this dose, the infusion pumps were turned off, and all animals were given a 20 minute recovery period, followed by a post-study analysis of rat health and behavior. […] The small increase in minute ventilation seen towards the end of the experiment in the (−)-doxapram group was associated with behavioral toxicities and therefore cannot be distinguished from non-specific side effects. […]

[7] = system: rat; assay: Cardio-respiratory traces after IV bolus (respiratory flow, volumes, minute ventilation, blood pressure); assay type: in vivo; conditions: for effect on arterial blood pressure and arrhythmias / effect on respiratory flow, inspiratory and expiratory volume, minute ventilation: 30 mg/kg IV bolus
Protocol: as §1
The procedure outlined in Example 1 was used herein. […] Results are illustrated in FIG. 6.
The procedure described in Example 1 was used herein to evaluate the effect of (−)-doxapram on mean arterial blood pressure (MAP) in the rat. […] Results are illustrated in FIG. 8.

[8] = system: rats; assay: Observations of animal behavior and adverse effects; assay type: in vivo, rat; conditions: for Death (animals out of group of 6): 30 mg/kg IV bolus, 30 mg/kg; for Clonic movements (animals out of group of 6) / Hunching, static, increased urination & defecation (animals out of group of 6): 3 mg/kg
Text: In Examples 1-7 described above, all rats are observed for behavioral changes and adverse effects, as recognized by those skilled in the art. Such effects include central nervous system and motor effects such as impairment, sedation, and convulsive potential, and mortality. Other effects related to bodily functions are also observable and may include changes in breathing, urination, defecation, posture, and normal cage activities (i.e., grooming, exploring, eating, etc.). […]

[9] = ventilatory stimulant activity, rat IV
[10] = IV bolus, cumulative doses 1, 3, 10 and 30 mg/kg, 1.5% isoflurane, maximum peak MV values

SMILES | Arterial Blood Gases - OIRD, pCO2 (mmHg) and saO2 (%): reversal of opioid-induced respiratory depression [1] | PaCO2: % reversal [1] [%] | PaO2: % reversal [1] [%] | pH % reversal [1] [%] | saO2: % reversal [1] [%] | Plethysmography (MV), Naïve and HVR: potentiation of hypoxic ventilatory response [2] | plasma exposure (time course, maximum concentration, AUC, washout), enantiomer vs enantiomer [5] | Plethysmography - OIRD (MV): reversal of opioid-induced respiratory depression [6] | effect on arterial blood pressure and arrhythmias [7] | effect on respiratory flow, inspiratory and expiratory volume, minute ventilation [7] | Death (animals out of group of 6) ([8]; Pleth.) | ED50 (mg/kg IV), increase in minute ventilation (MV) [3, 10] | also measured
CCN1CC(CCN2CCOCC2)C(c2ccccc2)(c2ccccc2)C1=O (racemic) [doxapram, 1-ethyl-4-(2-morphilinoethyl)-3,3-diphenyl-2-pyrrolidinone, reference compound] | significantly reverse opioid-induced respiratory depression | 90 | 22 | 58 | 33 | significantly potentiated the hypoxic ventilatory response |  |  |  |  |  |  | ED50 ([3]; Rattus norvegicus, IV bolus, cumulative doses 1, 3, 10 and 30 mg/kg, 1.5% isoflurane, maximum peak MV values, read-out: ED50 (mg/kg IV), increase in minute ventilation (MV)): 4.8 mg/kg; potency relative to (+)-enantiomer [3, 9]: approximately 50%; solubility ([4]; in EtOH/MeOH 80/20 (v/v)): 19.9 mg/mL (≈ 52.6 mM); solubility ([4]; in EtOH/MeOH (50/50 v/v)): 12.6 mg/mL (≈ 33.3 mM)
CCN1CC(CCN2CCOCC2)C(c2ccccc2)(c2ccccc2)C1=O (single isomer, unassigned; (+)) [(+)-doxapram, (+)-enantiomer of 1-ethyl-4-(2-morphilinoethyl)-3,3-diphenyl-2-pyrrolidinone] | significantly reverse opioid-induced respiratory depression; also recorded: Active | 79 | 41 | 49 | 41 | significantly potentiated the hypoxic ventilatory response; also recorded: Active | directly comparable time course, maximum concentration and exposure (AUC) | significantly reverses opioid-induced respiratory depression; also recorded: Active | only a minimal reduction in blood pressure without associated arrhythmias | increased respiratory flow, inspiratory and expiratory volume, as well as enhanced minute ventilation | 0/6 | 2.2 mg/kg and 2.1 mg/kg | Cardiopulmonary response: mean arterial pressure (MAP) ([7]; E-Phys, ≧10 mg/kg IV bolus): MAP ↓; adverse effects across the studies ([8]; rat, in vivo, iv): did not; Clonic movements (animals out of group of 6) ([8]; rat, in vivo, iv): 0/6; Hunching, static, increased urination & defecation (animals out of group of 6) ([8]; rat, in vivo, iv): 0/6
CCN1CC(CCN2CCOCC2)C(c2ccccc2)(c2ccccc2)C1=O (single isomer, unassigned; (-)) [(−)-doxapram] | does not; also recorded: Not active | 24 | −2 | −8 | −6 | did not; also recorded: Not active | directly comparable time course, maximum concentration and exposure (AUC) | does not; also recorded: Not active | pronounced reduction in arterial blood pressure together with a period of associated arrhythmias; also recorded: pronounced drop in blood pressure in rat, including a period of heart arrhythmias | only a minimal effect on respiratory flow, inspiratory and expiratory volume, and minute ventilation; also recorded: minimal ventilatory response | 5/6 | >200 mg/kg | Cardiopulmonary response: arrhythmias ([7]; E-Phys, ≧10 mg/kg IV bolus): Arrhythmias; Cardiopulmonary response: mean arterial pressure (MAP) ([7]; E-Phys, ≧10 mg/kg IV bolus, 10 mg/kg): MAP ↓↓; Clonic movements (animals out of group of 6) ([8]; ABG post morphine, 3 mg/kg/min IV): 5/6; Hunching, static, increased urination & defecation (animals out of group of 6) ([8]; Pleth., 3 mg/kg/min IV): 6/6; adverse effects across the studies ([8]; at the doses tested, IV): consistently produced a variety of adverse effects; potency vs (+)-enantiomer (times less potent) [3, 9]: at least 100 times
